“And” between values parts separate entries of the source, which are not always exact repeats. Equal values may be shown once. Toxic doses and inconclusive results are not listed. Rule as the data show it: active = T/C of 150% or more; inactive = T/C below 125%.
Tested on: L1210 leukemia ip in BDF1 mice, survival T/C
Assay: NCI In Vivo Anticancer Drug Screen. Data for tumor model L1210 Leukemia (intraperitoneal) in B6D2F1 (BDF1) mice
Conditions: endpoint: mean survival time, higher = longer survival
Summary of the method: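 In this screen, tumor-bearing mice given compound are compared to those given vehicle, and their survival values are reported as a treated-to-control quotient.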

[1] = dose: 100.0 mg/kg/injection, schedule: Q01DX001 (ip), vehicle: saline
[2] = dose: 100.0 mg/kg/injection, schedule: Q04DX003 (ip), vehicle: saline with Tween-80
[3] = dose: 200.0 mg/kg/injection, schedule: Q04DX003 (ip), vehicle: saline with Tween-80
[4] = dose: 50.0 mg/kg/injection, schedule: Q04DX003 (ip), vehicle: saline
[5] = dose: 100.0 mg/kg/injection, schedule: Q04DX003 (ip), vehicle: saline
[6] = dose: 100.0 mg/kg/injection, schedule: Q04DX003 (ip), vehicle: Klucel (hydroxypropylcellulose) (HPC)
[7] = dose: 200.0 mg/kg/injection, schedule: Q04DX003 (ip), vehicle: Klucel (hydroxypropylcellulose) (HPC)
[8] = dose: 400.0 mg/kg/injection, schedule: Q04DX003 (ip), vehicle: Klucel (hydroxypropylcellulose) (HPC)
[9] = dose: 25.0 mg/kg/injection, schedule: Q04DX003 (ip), vehicle: saline

Measured: T/C

O=S(=O)(O)c1cc(Cl)cc(N=Nc2ccc(O)cc2O)c1O
inactive: dose: 50.0 mg/kg/injection, schedule: Q01DX001 (ip), vehicle: saline 98 % of control | [1] 98 % of control | dose: 200.0 mg/kg/injection, schedule: Q01DX001 (ip), vehicle: saline 104 % of control | dose: 400.0 mg/kg/injection, schedule: Q01DX001 (ip), vehicle: saline 98 % of control

O=[N+]([O-])c1ccc(S(=O)(=O)C2CCCCC2Cl)cc1 (stereo not given)
inactive: dose: 100.0 mg/kg/injection, schedule: Q01DX009 (ip), vehicle: Klucel (hydroxypropylcellulose) (HPC) 88 % of control | dose: 200.0 mg/kg/injection, schedule: Q01DX009 (ip), vehicle: Klucel (hydroxypropylcellulose) (HPC) 91 % of control | dose: 400.0 mg/kg/injection, schedule: Q01DX009 (ip), vehicle: Klucel (hydroxypropylcellulose) (HPC) 90 % of control

Cc1scc[n+]1Cc1ccccc1[N+](=O)[O-]
inactive: dose: 5.0 mg/kg/injection, schedule: Q01DX001 (ip), vehicle: saline 109 % of control | dose: 10.0 mg/kg/injection, schedule: Q01DX001 (ip), vehicle: saline 109 % of control | dose: 20.0 mg/kg/injection, schedule: Q01DX001 (ip), vehicle: saline 105 % of control | dose: 40.0 mg/kg/injection, schedule: Q01DX001 (ip), vehicle: saline 109 % of control | dose: 80.0 mg/kg/injection, schedule: Q01DX001 (ip), vehicle: saline 100 % of control

C/C=C\C=C\C(=O)OC
inactive: [2] 99 % of control | [3] 89 % of control | dose: 400.0 mg/kg/injection, schedule: Q04DX003 (ip), vehicle: saline with Tween-80 92 % of control

Cc1cc([NH-])c([NH-])cc1C.[Cl][Pt+2][Cl]
inactive: dose: 25.0 mg/kg/injection, schedule: Q01DX009 (ip), vehicle: other 119 % of control | dose: 50.0 mg/kg/injection, schedule: Q04DX003 (ip), vehicle: other 104 % of control | [4] 112 % of control and 119 % of control | dose: 100.0 mg/kg/injection, schedule: Q04DX003 (ip), vehicle: other 119 % of control | [5] 107 % of control and 113 % of control | dose: 200.0 mg/kg/injection, schedule: Q04DX003 (ip), vehicle: saline 93 % of control
active: dose: 18.0 mg/kg/injection, schedule: Q01DX009 (ip), vehicle: water 150 % of control

CC1CC(C)(C)OCO1 (stereo not given)
inactive: [6] 100 % of control | [7] 93 % of control | [8] 86 % of control

CCn1cc(C(=O)O)c(=O)c2ccc(C)nc21
inactive: [6] 97 % of control | [7] 96 % of control | [8] 94 % of control

Cc1cc(C)c(N(CC(=O)O)S(=O)(=O)c2ccccc2)c(C)c1I
inactive: dose: 75.0 mg/kg/injection, schedule: Q04DX003 (ip), vehicle: Klucel (hydroxypropylcellulose) (HPC) 94 % of control

C1CCCCCC(C2CCCCCCCCCCC2)CCCCC1
inactive: dose: 25.0 mg/kg/injection, schedule: Q01DX009 (ip), vehicle: acetone 94 % of control | [9] 94 % of control | dose: 50.0 mg/kg/injection, schedule: Q01DX009 (ip), vehicle: acetone 93 % of control | [4] 92 % of control | [1] 92 % of control | dose: 100.0 mg/kg/injection, schedule: Q01DX009 (ip), vehicle: acetone 98 % of control | [5] 92 % of control | dose: 150.0 mg/kg/injection, schedule: Q01DX009 (ip), vehicle: saline 90 % of control | dose: 225.0 mg/kg/injection, schedule: Q01DX009 (ip), vehicle: saline 88 % of control | dose: 335.0 mg/kg/injection, schedule: Q01DX009 (ip), vehicle: saline 93 % of control

N#CCCn1c(=S)sc2ccccc21
inactive: dose: 50.0 mg/kg/injection, schedule: Q04DX003 (ip), vehicle: saline with Tween-80 103 % of control | [2] 100 % of control | [3] 106 % of control

CCCOP(=S)(N1CC1)N1CC1
inactive: dose: 44.0 mg/kg/injection, schedule: Q01DX001 (ip), vehicle: saline 114 % of control

CCC(C)[Se][Se]C(C)CC (stereo not given)
inactive: dose: 6.25 mg/kg/injection, schedule: Q01DX009 (ip), vehicle: saline 94 % of control | dose: 6.25 mg/kg/injection, schedule: Q04DX003 (ip), vehicle: saline 97 % of control | dose: 12.5 mg/kg/injection, schedule: Q01DX009 (ip), vehicle: saline 98 % of control | dose: 12.5 mg/kg/injection, schedule: Q04DX003 (ip), vehicle: saline 103 % of control | dose: 25.0 mg/kg/injection, schedule: Q01DX009 (ip), vehicle: saline 91 % of control | [9] 103 % of control | [5] 89 % of control

— PubChem BioAssay AID248 (DTP/NCI, 2004)
